Counter-ions that a name gives are not always drawn. Like-named read-outs stand apart in the source and are kept apart here.
Biological target: T1, Human IP6K1 (Homo sapiens, UniProt Q92551)
T1 construct: GST (N, cleaved yes); made in house; host or cells: C43 E. coli, pGEX-6P-2
Experiment: IP6K1 high-throughput screen of the Sigma LOPAC (ADP-Glo Max, single point);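 also: final compound concentration 10µM in 5% DMSO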
Type: biochemical

[1] = Sigma LOPAC single-point screen, ADP-Glo Max raw signal per well
[2] = Sigma LOPAC single-point screen, Z-score from plate average and StDev
[3] = LOPAC single-point screen, ADP-Glo Max raw signal per well
[4] = LOPAC single-point screen, Z-score from raw signal with plate average and StDev
[5] = LOPAC single-point screen, Z-score against plate average and StDev
[6] = LOPAC single-point screen, ADP-Glo Max luminescence raw signal per well
[7] = LOPAC single-point screen, Z-score relative to plate average and StDev
[8] = LOPAC single-point screen, Z-score from plate average and StDev

T1 sequence (Q92551 whole entry): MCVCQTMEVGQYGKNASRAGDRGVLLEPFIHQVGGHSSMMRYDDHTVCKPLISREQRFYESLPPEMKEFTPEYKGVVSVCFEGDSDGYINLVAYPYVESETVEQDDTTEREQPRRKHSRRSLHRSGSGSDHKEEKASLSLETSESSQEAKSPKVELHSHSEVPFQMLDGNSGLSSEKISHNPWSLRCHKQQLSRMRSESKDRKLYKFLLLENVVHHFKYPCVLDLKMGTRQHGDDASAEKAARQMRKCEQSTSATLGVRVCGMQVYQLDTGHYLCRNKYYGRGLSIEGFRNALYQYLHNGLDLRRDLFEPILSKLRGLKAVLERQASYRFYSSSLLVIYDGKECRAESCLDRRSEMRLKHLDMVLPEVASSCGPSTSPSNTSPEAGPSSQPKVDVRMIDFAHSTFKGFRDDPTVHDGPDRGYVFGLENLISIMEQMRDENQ

With `C#C[C@]1(O)CC[C@H]2[C@@H]3CCC4=Cc5nc6nc7ccccc7n6cc5C[C@]4(C)[C@H]3CC[C@@]21C` [WIN 62,577] the “Raw Signal” value [1] was 58080 and the Z-score [2] was 0.3995.
`COc1cccc(OC)c1OCCNCC1COc2ccccc2O1.Cl` (stereo not drawn) [WB-4101 hydrochloride] was tested, and the “Raw Signal” value [1] was 58268 and the Z-score [2] was 0.6298.
With `CN1CC[C@@]2(C)c3cc(O)ccc3N(C)[C@@H]12.O=C(O)/C=C/C(=O)O` [(-)-Eseroline fumarate] the “Raw Signal” value [1] was 57638 and the Z-score [2] was 0.5018.
For `Cl.NCCNC(=O)c1ncsc1-c1cccc(F)c1` [Ro 41-1049 hydrochloride], the “Raw Signal” value [1] was 60989 and the Z-score [2] was 0.9646.
With `C[C@H]1O[C@@H](n2cc(F)c(=O)[nH]c2=O)[C@H](O)[C@@H]1O` [5-fluoro-5-deoxyuridine] the “Raw Signal” value [3] was 53997 and the Z-score [4] was -0.2376.
With `CCCCCCCCCCC/C=C\C(C)(C)/C=C\CCCC(=O)O` [7,7-Dimethyl-(5Z,8Z)-eicosadienoic acid] the “Raw Signal” value [3] was 53422 and the Z-score [4] was -0.3544.
With `OCCN1CCN(CCCN2c3ccccc3Sc3ccc(Cl)cc32)CC1` [Perphenazine] the “Raw Signal” value [1] was 57078 and the Z-score [2] was 0.4511.
With `C1COC(NC(C2CC2)C2CC2)=N1` [Rilmenidine hemifumarate] the “Raw Signal” value [3] was 56006 and the Z-score [5] was -0.003459.
In the case of `COc1ccc(Cc2nccc3cc(OC)c(OC)cc23)cc1OC` [Papaverine hydrochloride], the “Raw Signal” value [1] was 61808 and the Z-score [2] was 1.246.
`O=C(O)CCCCC1CCSS1` (racemic) [(±)-alpha-Lipoic Acid] was tested, and the “Raw Signal” value [1] was 59328 and the Z-score [2] was 0.6419.
For `CC(CN(C)C)CN1c2ccccc2CCc2ccccc21` (stereo not drawn) [Trimipramine maleate], the “Raw Signal” value [6] was 53117 and the Z-score [7] was -0.5647.
With `Br.NC1CCc2cc(O)c(O)cc2C1` (stereo not drawn) [6,7-ADTN hydrobromide] the “Raw Signal” value [3] was 55279 and the Z-score [5] was 0.02274.
In the case of `Cl.Cl.Clc1cccc(N2CCNCC2)c1`, the “Raw Signal” value [1] was 60295 and the Z-score [2] was 0.4195.
`Cl.Oc1cc2c(cc1O)C(c1ccccc1)CNCC2` (racemic) [(±)-SKF-38393 hydrochloride] was tested, and the “Raw Signal” value [6] was 48418 and the Z-score [7] was -1.371.
`CC(N)=NCc1cccc(CN)c1.Cl.Cl` [1400W dihydrochloride] was tested, and the “Raw Signal” value [3] was 55005 and the Z-score [4] was -0.1979.
In the case of `O=S(=O)(NCCNC/C=C/c1ccc(Br)cc1)c1cccc2cnccc12` [H-89], the “Raw Signal” value [6] was 53512 and the Z-score [7] was -0.7752.
With `Cl.OCc1c[nH]cn1` [4-Imidazolemethanol hydrochloride] the “Raw Signal” value [3] was 56297 and the Z-score [5] was 0.2295.
In the case of `NCCSSCCN` [Cystamine dihydrochloride], the “Raw Signal” value [3] was 58178 and the Z-score [5] was 0.04666.
`O=C(O)c1cc([N+](=O)[O-])ccc1NCCCc1ccccc1` was tested, and the “Raw Signal” value was 51963 and the Z-score was -0.4084.
With `CN1CCC(=C2c3ccccc3CC(=O)c3sccc32)CC1` [Ketotifen fumarate] the “Raw Signal” value [6] was 50782 and the Z-score [7] was -0.6068.
`NC(=O)c1cccc(N)c1` [3-aminobenzamide] was tested, and the “Raw Signal” value [3] was 56496 and the Z-score [4] was -0.2496.
For `COC(=O)Nc1nc2ccc(C(=O)c3cccs3)cc2[nH]1` [Nocodazole], the “Raw Signal” value [1] was 59128 and the Z-score [2] was 0.7955.
With `CCCCCCC(C(C)O)n1cnc2c(N)ncnc21.Cl` (stereo not drawn) the “Raw Signal” value [6] was 51235 and the Z-score [7] was -0.7986.
In the case of `COc1cc2c(CCNC(C)=O)c[nH]c2cc1O` [6-Hydroxymelatonin], the “Raw Signal” value [6] was 52038 and the Z-score [7] was -0.6355.
`CC(/C=C/c1cccc(Oc2ccc(F)cc2)c1)N(O)C(N)=O` (stereo not drawn) [BWB70C] was tested, and the “Raw Signal” value [3] was 58720 and the Z-score [5] was 0.1421.
For `COc1ccc(CN(CCN(C)C)c2ccccn2)cc1` [Pyrilamine maleate], the “Raw Signal” value [1] was 60252 and the Z-score [2] was 0.9844.
For `CCCC(C)(COC(N)=O)COC(=O)NC(C)C` (stereo not drawn) [Carisoprodol], the “Raw Signal” value [1] was 61112 and the Z-score [2] was 0.5634.
In the case of `CNCCCC1c2ccccc2C=Cc2ccccc21` [Protriptyline hydrochloride], the “Raw Signal” value [3] was 55179 and the Z-score [4] was -0.1641.
In the case of `COc1cc2ncnc(Nc3cccc(Cl)c3)c2cc1OC` [Tyrphostin AG 1478], the “Raw Signal” value [1] was 57891 and the Z-score [2] was 0.3628.
In the case of (+)-Cyclazocine, the “Raw Signal” value [3] was 53235 and the Z-score [4] was -0.3924.
With `CC(CN1c2ccccc2Sc2ccccc21)N(C)C` (stereo not drawn) [Promethazine hydrochloride] the “Raw Signal” value [1] was 57662 and the Z-score [2] was 0.5492.
In the case of `CCOC(=O)C1=C(C)NC(=S)NC1c1cccc(O)c1` (stereo not drawn) [Monastrol], the “Raw Signal” value [3] was 54262 and the Z-score [5] was -0.0221.
`C[N+]1(C)C2CCC1CC(OC(=O)c1c[nH]c3ccccc13)C2.[I-]` (stereo not drawn) was tested, and the “Raw Signal” value [6] was 66909 and the Z-score [8] was 2.115.
With `C=C/C(C)=C/[C@@]1(C)SC(=O)C(C)=C1O` [Thiolactomycin] the “Raw Signal” value [3] was 51778 and the Z-score [4] was -0.4395.
In the case of `O=C1CCc2cc(OCCCCc3nnnn3C3CCCCC3)ccc2N1` [Cilostazol], the “Raw Signal” value [3] was 58165 and the Z-score [5] was 0.04437.
With `N[C@@H](C(=O)N[C@@H]1C(=O)N2C(C(=O)O)=C(Cl)CS[C@H]12)c1ccccc1` [Cefaclor] the “Raw Signal” value [3] was 57158 and the Z-score [4] was -0.133.
In the case of `CC(C)NC[C@@H](O)COc1ccc(CC(N)=O)cc1` [R(+)-Atenolol], the “Raw Signal” value [6] was 54301 and the Z-score [7] was -0.6362.
In the case of `CC(C)C[C@H](N)CSSC[C@@H](N)CC(C)C.Cl.Cl` [L-Leucinethiol, oxidized dihydrochloride], the “Raw Signal” value [3] was 55535 and the Z-score [5] was 0.1918.
For `CN(N=O)c1ccc(O)c(O)c1` [Me-3,4-dephostatin], the “Raw Signal” value [6] was 32245 and the Z-score [7] was -3.722.
`COc1ccc2cc([C@H](C)C(=O)[O-])ccc2c1.[Na+]` [(-)-Naproxen sodium] was tested, and the “Raw Signal” value [1] was 56716 and the Z-score [2] was 0.3902.
For `NC(N)=Nc1nc(CSCCC(N)=NS(N)(=O)=O)cs1` [Famotidine], the “Raw Signal” value [3] was 53127 and the Z-score [4] was -0.4143.
For `CN1CCN(CCCN2c3ccccc3Sc3ccc(Cl)cc32)CC1` [Prochlorperazine dimaleate], the “Raw Signal” value [1] was 58817 and the Z-score [2] was 0.5427.
In the case of `C=C(C)[C@H]1Cc2c(ccc3c2O[C@@H]2COc4cc(OC)c(OC)cc4[C@@H]2C3=O)O1` [Rotenone], the “Raw Signal” value [1] was 59768 and the Z-score [2] was 0.7274.
For `COc1ccc2[nH]cc(CCNC(C)=O)c2c1` [Melatonin], the “Raw Signal” value [3] was 53452 and the Z-score [4] was -0.1582.
In the case of `NC(CO)(CO)CO.O=C(c1ccccc1)c1ccc2n1CCC2C(=O)O` (stereo not drawn) [Ketorolac tris salt], the “Raw Signal” value [6] was 48098 and the Z-score [7] was -1.058.
`NC(CCCP(=O)(O)O)C(=O)O` (racemic) [(±)-2-Amino-5-phosphonopentanoic acid] was tested, and the “Raw Signal” value [1] was 60299 and the Z-score [2] was 0.4202.
`CC(C)NC[C@H](O)c1ccc(O)c(O)c1.O=C(O)C(O)C(O)C(=O)O` [R(-)-Isoproterenol (+)-bitartrate] was tested, and the “Raw Signal” value [6] was 62194 and the Z-score [8] was 1.427.
With `CC(C)(C)c1o[nH]c(=O)c1CC(N)C(=O)O` (stereo not drawn) [ATPA] the “Raw Signal” value [3] was 57342 and the Z-score [4] was -0.1006.
With `CC[C@@H]1Cc2cc(O)ccc2C2=C1c1ccc(O)cc1C[C@H]2CC` the “Raw Signal” value [6] was 51869 and the Z-score [7] was -0.6698.
For `CNc1cc(NS(=O)(=O)c2ccc(N)cc2)nc(NC)n1.Cl.Cl` [Ro 04-6790 dihydrochloride], the “Raw Signal” value [6] was 63150 and the Z-score [8] was 1.384.
For `O=C(O)CCC(=O)N1CCC[C@H]1C(=O)O` [N-Succinyl-L-proline], the “Raw Signal” value [3] was 55499 and the Z-score [4] was -0.102.
For `Cl.c1ccc(CN2CCC3(CCCc4ccccc43)CC2)cc1` [L-687,384 hydrochloride], the “Raw Signal” value [1] was 58533 and the Z-score [2] was 0.6955.
With `C[n+]1cc2c3c(ccc2c2ccc4cc5c(cc4c21)OCO5)OCO3` [Sanguinarine chloride] the “Raw Signal” value [6] was 52602 and the Z-score [7] was -0.6648.
For `COc1ccc(CNC(=O)/C=C/c2ccc3[nH]cc(CCN(C)C)c3c2)cc1` [GR 4661], the “Raw Signal” value [6] was 54448 and the Z-score [7] was -0.6103.
In the case of `CN1C(C(=O)Nc2ccccn2)=C(O)c2ccccc2S1(=O)=O` [Piroxicam], the “Raw Signal” value [1] was 59564 and the Z-score [2] was 0.8688.
With `CC1=C(C(=O)O)N2C(=O)[C@@H](NC(=O)[C@H](N)C3=CCC=CC3)[C@H]2SC1` [Cephradine] the “Raw Signal” value [3] was 56353 and the Z-score [4] was -0.2748.
For `O=C(C1CCCCC1)N1CC(=O)N2CCc3ccccc3C2C1` (stereo not drawn) [Praziquantel], the “Raw Signal” value [3] was 53749 and the Z-score [4] was -0.1083.
With `CCCCOC(=O)NS(=O)(=O)c1sc(CC(C)C)cc1-c1ccc(Cn2c(CC)nc3c(C)cc(C)nc32)cc1` [L-162,313] the “Raw Signal” value [3] was 54291 and the Z-score [5] was -0.01722.
For `CN1Cc2c(N)cccc2C(c2ccccc2)C1` (stereo not drawn) [Nomifensine maleate], the “Raw Signal” value [3] was 56397 and the Z-score [5] was 0.3366.
For `O=C(O)Cc1ccc(O)c(O)c1` [3,4-Dihydroxyphenylacetic acid], the “Raw Signal” value [1] was 57060 and the Z-score [2] was 0.3844.
In the case of `Nc1c2c(nc3ccccc13)CCCC2O.O=C(O)/C=C\C(=O)O` (stereo not drawn) [Hydroxytacrine maleate], the “Raw Signal” value [3] was 53095 and the Z-score [4] was -0.4208.
In the case of `Cc1ccccc1N1CCN(S(=O)(=O)CC23CCC(CC2NC(=O)C(N)CCS(C)(=O)=O)C3(C)C)CC1` [L-368,899], the “Raw Signal” value [6] was 50329 and the Z-score [7] was -0.6829.
`CN(C)CCCN1c2ccccc2Sc2ccccc21` [Promazine hydrochloride] was tested, and the “Raw Signal” value [6] was 63198 and the Z-score [8] was 1.394.
In the case of `COc1ccc(NC(=O)c2ccc(-c3ccc(-c4noc(C)n4)cc3C)cc2)cc1N1CCN(C)CC1.Cl` [GR 127935 hydrochloride], the “Raw Signal” value [6] was 51529 and the Z-score [7] was -0.4813.
In the case of `CP(=O)(O)CCCN.Cl` [SKF 97541 hydrochloride], the “Raw Signal” value [3] was 57179 and the Z-score [4] was -0.1293.
`CCCN1CCO[C@@H]2c3cc(O)ccc3OC[C@H]21.Cl` [S(+)-PD 128,907 hydrochloride] was tested, and the “Raw Signal” value [3] was 56406 and the Z-score [5] was 0.07425.

From PMC5706701, “Development of a homogenous high-throughput assay for inositol hexakisphosphate kinase 1 activity” (PLoS ONE, 2017)
